Experimental data from patent publication US10676514B2, “CDCA1-derived peptide and vaccine containing same” (ONCOTHERAPY SCIENCE, INC., priority 2014, dated 2020).
“Also recorded” adds a separate entry of the source.

How the values were obtained:
[1] = tested on: peptide-pulsed C1R-A33 cells; assay: IFN-gamma ELISPOT assay of peptide-induced CTLs (HLA-A*3303); format: cell-based, human; settings: CTLs induced from HLA-A*3303-positive donors, peptide-pulsed C1R-A33 vs control
From the text: (§1) Monocyte-derived dendritic cells (DCs) were used as the antigen-presenting cell to induce a cytotoxic T lymphocyte (CTL) response against peptides presented on human leukocyte antigens (HLAs). As described in the other sections, DCs were generated in vitro (Nakahara S et al., Cancer Res 2003, 63(14): 4112-8). Specifically, peripheral-blood mononuclear cells isolated from healthy volunteers (HLA-A*3303-positive) with the Ficoll-Paque plus solution (Pharmacia) were separated by attaching to plastic tissue culture dishes (Becton Dickinson) and concentrated as a monocyte fraction. The monocyte-concentrated population was cultured in the presence of 1000 IU/ml granulocyte macrophage colony-stimulating factor (R&D System) and 1000 IU/ml interleukin(IL)-4 (R&D System) in an AIM-V medium (Invitrogen) containing 2% heat-inactivated autologous serum (AS). After seven days of culturing, the cytokine-induced DCs were pulsed with 20 micro-g/ml each of the synthesized peptides in an AIM-V medium at 37 degrees C. for three hours in the presence of 3 micro-g/ml beta 2-microglobulin. The generated cells appeared to express on their cell surface DC-associated molecules such as CD80, CD83, CD86 and HLA class II (data not shown). Next, these peptide-pulsed DCs were inactivated by X-ray irradiation (20 Gy), and mixed in a 1:20 ratio with autologous CD8^+ T cells obtained by positive selection using the CD8 Positive Isolation Kit (Dynal). These culture products were seeded in a 48-well plate (Corning). Each well was made to contain 1.5×10^4 peptide-pulsed DCs, 3×10^5 CD8^+ T cells and 10 ng/ml IL-7 (R&D System) in 0.5 ml of the AIM-V/2% AS medium. Three days later, these culture products were added with a final concentration of 20 IU/ml IL-2 (CHIRON). On day 7 and day 14, T cells were further stimulated with peptide-pulsed autologous DCs. The DCs were prepared every time by the same method as above. On day 21, after the third peptide stimulation, CTLs were examined against the peptide-pulsed CIR-A33 cell by a human interferon (IFN)-gamma enzyme-linked immunospot (ELISPOT) assay (Tanaka H et al., Br J Cancer 2001, 84(1): 94-9; Umano Y et al., Br J Cancer 2001, 84(8): 1052-7; Uchida N et al., Clin Cancer Res 2004, 10(24): 8577-86; Suda T et al., Cancer Sci 2006, 97(5): 411-9; Watanabe T et al., Cancer Sci 2005, 96(8): 498-506).
(§2) Specifically, peptide-pulsed C1R-A33 (1×10^4 cells/well) was prepared as the stimulator cell. The induced CTLs, i.e., CTL lines and CTL clones, were used as the responder cell. The IFN-gamma ELISPOT assay and IFN-gamma ELISA were performed according to the manufacturer's manual.

[2] = tested on: peptide-pulsed C1R-A33; assay: IFN-gamma ELISA of CTL lines and CTL clones (HLA-A*3303); format: cell-based, human
Experimental: (§3) CTLs were propagated in culture using methods similar to those disclosed by Riddell et al. (Walter E A et al., N Engl J Med 1995, 333(16): 1038-44; Riddell S R et al., Nat Med 1996, 2(2): 216-23). The CTLs were co-cultured in a total of 25 ml AIM-V medium containing 5% AS (AIM-V/5% AS) and 40 ng/ml anti-CD3 antibody with two types of Mitomycin C-treated human B lymphoblastoid cell lines at 5×10^6 cells/flask. One day after beginning of the culturing, 120 IU/ml IL-2 was added to the culture. On days 5, 8 and 11, a fresh AIM-V/5% AS medium containing 30 IU/ml IL-2 was added to the culture (Tanaka H et al., Br J Cancer 2001, 84(1): 94-9; Umano Y et al., Br J Cancer 2001, 84(8): 1052-7; Uchida N et al., Clin Cancer Res 2004, 10(24): 8577-86; Suda T et al., Cancer Sci 2006, 97(5): 411-9; Watanabe T et al., Cancer Sci 2005, 96(8): 498-506).
(§4) Dilution of CTLs was carried out to make 0.3, 1 and 3 cells/well in 96 round-bottomed microtiter plates (Nalge Nunc International). The CTLs were co-cultured with two types of Mitomycin C-treated human B lymphoblastoid cell lines at 1×10^4 cells/well in a total of 150 micro-l/well AIM-V/5% AS medium with 30 ng/ml anti-CD3 antibody and 125 IU/ml IL-2. Ten days later, IL-2 was added to the medium at 50 micro-l/well to reach a final concentration of 125 IU/ml. On day 14, the CTL activity was tested, and the CTL clones were propagated using the same method as described above (Uchida N et al., Clin Cancer Res 2004, 10(24): 8577-86; Suda T et al., Cancer Sci 2006, 97(5): 411-9; Watanabe T et al., Cancer Sci 2005, 96(8): 498-506).
as §2

[3] = tested on: COS7 cells transfected with CDCA1 and HLA-A*3303; assay: Specific CTL activity against target cells expressing CDCA1 and HLA-A*3303; format: cell-based, African green monkey; settings: listed as CDCA1-A33-9-43
From the text: A cDNA encoding the open-reading frame of a target gene or HLA-A*3303 was amplified by PCR. The PCR-amplified product was cloned into an expression vector. Either or both of the target gene-expressing vector and the HLA-A*3303-expressing vector were transfected into COS7, which is a cell line negative for the target gene and HLA, using Lipofectamine 2000 (Invitrogen) following the manufacturer's recommended protocol. Two days after transfection, the transfected cells were harvested using versene (Invitrogen), and used as the target cell for CTL activity assay (5×10^4 cells/well).
The CTL clone established against CDCA1-A33-9-43 (SEQ ID NO: 27) was investigated for its ability to recognize target cells expressing CDCA1 and the HLA-A*3303 molecule. COS7 cells transfected with both full-length CDCA1 and the HLA-A*3303 gene (a specific model of target cells expressing CDCA1 and the HLA-A*3303 gene) were prepared as the target cell. COS7 cells transfected with either full-length CDCA1 or HLA-A*3303 were prepared as the control.

[4] = tested on: peptide-pulsed C1R-A03; assay: IFN-gamma ELISPOT assay of peptide-induced CTLs (HLA-A*0301); format: cell-based, human; settings: CTLs induced from HLA-A*0301-positive donors, peptide-pulsed C1R-A03 vs control
From the text: as §1, with “(HLA-A*0301-positive)” for “(HLA-A*3303-positive)”, “C1R-A03” for “CIR-A33 cell”
(§5) Specifically, peptide-pulsed C1R-A03 (1×10^4 cells/well) was prepared as the stimulator cell. The induced CTLs, i.e., CTL lines and CTL clones, were used as the responder cell. The IFN-gamma ELISPOT assay and IFN-gamma ELISA were performed according to the manufacturer's manual.

[5] = tested on: peptide-pulsed C1R-A03; assay: IFN-gamma ELISA of CTL lines and CTL clones (HLA-A*0301); format: cell-based, human
Experimental: as §3, §4, §5

[6] = tested on: peptide-pulsed C1R-A11 cells; assay: IFN-gamma ELISPOT assay of peptide-induced CTLs (HLA-A*1101); format: cell-based, human; settings: CTLs induced from HLA-A*1101-positive donors, peptide-pulsed C1R-A11 vs control, listed as CDCA1-A11-9-343
From the text: as §1, with “(HLA-A*1101-positive)” for “(HLA-A*3303-positive)”, “C1R-A11 cells” for “CIR-A33 cell”
Specifically, peptide-pulsed C1R-A11 (1×10^4 cells/well) was prepared as the stimulator cell. The induced CTLs, i.e., CTL lines and CTL clones, were used as the responder cell. The IFN-gamma ELISPOT assay and IFN-gamma ELISA were performed according to the manufacturer's manual.

## EVLHMIYMR (a peptide derived from CDCA1) [SEQ ID NO: 27]
[1]
  peptide-specific CTL activity (IFN-gamma production): potent IFN-gamma production
[2]; CTL clones by limiting dilution, peptide-pulsed C1R-A33, listed as CDCA1-A33-9-43
  IFN-gamma production of CTL clones: Potent IFN-gamma production
[2]; CTL lines, peptide-pulsed vs non-pulsed target cells, HLA-A*3303
  IFN-gamma production of CTL lines: potent IFN-gamma production
[3]; COS7 cells transfected with both CDCA1 and HLA-A*3303
  specific CTL activity of CTL clone: specific CTL activity; also recorded: potent CTL activity
[3]; COS7 cells transfected with either full-length CDCA1 or HLA-A*3303
  specific CTL activity of CTL clone against control cells: a significant specific CTL activity was not shown; also recorded: a significant specific CTL activity was not detected

## KMKDTVQKLK (a peptide derived from CDCA1) [SEQ ID NO: 47]
[4]; listed as CDCA1-A03-10-257
  peptide-specific CTL activity (IFN-gamma production): potent IFN-gamma production; also recorded: significant specific CTL activity
[5]; CTL clones by limiting dilution, peptide-pulsed C1R-A03, listed as CDCA1-A03-10-257
  IFN-gamma production of CTL clones: Potent IFN-gamma production
[5]; CTL lines, peptide-pulsed vs non-pulsed target cells, HLA-A*0301
  IFN-gamma production of CTL lines: potent IFN-gamma production

## RLMIVKKEK (a peptide derived from CDCA1) [SEQ ID NO: 10]
[6]
  peptide-specific CTL activity (IFN-gamma production): potent IFN-gamma production; also recorded: significant specific CTL activity
[4]; listed as CDCA1-A03-9-343
  peptide-specific CTL activity (IFN-gamma production): no specific IFN-gamma production; also recorded: specific IFN-gamma production was not observed
